According to patent US20230263822A1, “MODULATION OF FACTOR 11 EXPRESSION” (Ionis Pharmaceuticals, Inc., priority 2008, published 2023):

Columns and labels:
[1] = system: blood coagulation; assay: PT and aPTT assay in platelet poor plasma (Example 10); assay type: in vivo; conditions: BALB/c mice
Experimental: BALB/c mice were injected with 5 mg/kg, 10 mg/kg, 25 mg/kg, or 50 mg/kg of ISIS 404057 or ISIS 404071 twice a week for 3 weeks. A control group of mice was injected with phosphate buffered saline (PBS) twice a week for 3 weeks. Mice were sacrificed 5 days after receiving the last dose. Whole liver was harvested for RNA analysis and plasma was collected for clotting analysis (PT and aPTT) and protein analysis.
Prothrombin Time (PT) and Activated Partial Thromboplastin Time (aPTT) were measured using platelet poor plasma (PPP) from mice treated with ISIS 404057 and ISIS 404071. PT and aPTT values provided in Table 18 are reported as International Normalized Ratio (INR) values. INR values for PT and aPTT were determined by dividing the PT or aPTT value for each experimental group (i.e. 5 mg/kg, 10 mg/kg, 25 mg/kg, and 50 mg/kg treatment with ISIS 404057 or ISIS 404071) by the PT or aPTT for the PBS treated group. This ratio was then raised to the power of the International Sensitivity Index (ISI) of the tissue factor used.

[2] = system: platelet factor-4 (PF-4); assay: Thrombus formation by PF-4, FeCl3 induced VT model, combination with PLAVIX (Example 26); assay type: in vivo, BALB/c mice; conditions: ISIS 404071 20 mg/kg, PLAVIX 0 mg/kg
Experimental: The combination of ISIS 404071 and PLAVIX was evaluated in the FeCl3 induced VT mouse model. Four groups of eight BALB/c mice, weighing approximately 25 g each, were treated with 6.25 mg/kg, 12.50 mg/kg, 25.00 mg/kg, or 50.00 mg/kg of PLAVIX. Mice were given two doses of PLAVIX on day one and one dose of PLAVIX on day two, two hours before surgery.
After the last dose of ISIS 404071, mice were treated with 6.25 mg/kg, 12.50 mg/kg, 25.00 mg/kg, or 50.00 mg/kg of PLAVIX. Two doses of PLAVIX were administered to the mice on day one and one dose of PLAVIX was administered on day two, two hours before surgery.
Two control groups of eight BALB/c mice, weighing approximately 25 g each, were not treated with ISIS 404071 or PLAVIX. […] Thrombus formation was induced with FeCl3 in all of the mice except the first […] control groups. All mice were anesthetized with 150 mg/kg of ketamine mixed with 10 mg/kg of xylazine administered by intraperitoneal injection.
After 3 minutes of exposure, the filter paper was removed. Thirty minutes after the filter paper application, a fixed length of the vein containing the thrombus was dissected out for platelet analysis.
Real-time PCR quantification of PF-4 was used to quantify platelets in the vena cava as a measure of thrombus formation. […] Therefore, the combination of anti-platelet therapy with Factor 11 ASO increases antithrombotic activity. Data is presented as percent of PF-4 mRNA as compared to the PBS+ FeCl3 control.

[3] = system: blood coagulation; assay: PT and aPTT vs warfarin (Example 13); assay type: in vivo, BALB/c mice; conditions: for PT INR / aPTT INR: PPP two days after final dose
Experimental: In a control group, BALB/c mice were treated with PBS, administered subcutaneously mice twice a week for 3 weeks.
Two days after the final dose was administered, PPP was collected and PT and aPTT assays were performed.
PT and aPTT values provided in Table 16 are reported as International Normalized Ratio (INR) values. […] This ratio was then raised to the power of the International Sensitivity Index (ISI) of the tissue factor used.

[4] = system: blood coagulation; assay: PT and aPTT, combination with LOVENOX (Example 19); assay type: in vivo, BALB/c mice
Experimental: PT and aPTT were measured using PPP from mice treated with ISIS 404071 in combination with LOVENOX. In the first cohort, ISIS 404071 was administered subcutaneously to BALB/c mice at a dosage of 25 mg/kg twice a week for 3 weeks. Plasma was collected from these mice 5 days after receiving the last dose of ISIS 404071. In the second cohort, LOVENOX was administered subcutaneously to BALB/c mice at a dosage of 20 mg/kg once daily for three days. Plasma was collected from these mice 4 hours after receiving the last dose of LOVENOX. In the third cohort, ISIS 404071 was administered subcutaneously to BALB/c mice at a dosage of 20 mg/kg twice a week for 3 weeks, and 2 days after receiving the last dose of ISIS 404071, LOVENOX was administered subcutaneously at a dosage of 20 mg/kg once daily. Plasma was collected from these mice 4 hours after the last dose of LOVENOX. In a fourth cohort, PBS was administered subcutaneously twice a week for three weeks, as a control. Plasma was collected from these mice 5 days after the last dose.
PT and aPTT values provided in Table 31 are reported as International Normalized Ratio (INR) values. […] Also shown in Table 31, treatment with LOVENOX and treatment with ISIS 404071 combined with LOVENOX increase aPTT.

[5] = 5 mg/kg twice a week for 3 weeks
[6] = 10 mg/kg twice a week for 3 weeks
[7] = 25 mg/kg twice a week for 3 weeks
[8] = 50 mg/kg twice a week for 3 weeks
[9] = 5-50 mg/kg twice a week for 3 weeks
[10] = BALB/c mice, ISIS 404071 1.25-40 mg/kg, warfarin 0.5-5 mg/kg
[11] = ISIS 404071 1.25 mg/kg subcutaneously twice a week for 3 weeks
[12] = ISIS 404071 5 mg/kg subcutaneously twice a week for 3 weeks
[13] = ISIS 404071 10 mg/kg subcutaneously twice a week for 3 weeks
[14] = ISIS 404071 20 mg/kg subcutaneously twice a week for 3 weeks
[15] = ISIS 404071 40 mg/kg subcutaneously twice a week for 3 weeks
[16] = ISIS 404071 alone 25 mg/kg s.c. twice a week for 3 weeks, LOVENOX alone 20 mg/kg s.c. once daily for three days, combination 20 mg/kg + 20 mg/kg

## ISIS 404071: antisense oligonucleotide targeted to murine Factor 11 mRNA, TGGTAATCCACTTTCAGAGG, target start site 869 (chemistry not given here)
[1]; [5]
  PT INR: 1.06
  aPTT INR: 1.09
[1]; [6]
  PT INR: 1.08
  aPTT INR: 1.13
[1]; [7]
  PT INR: 1.06
  aPTT INR: 1.35
[1]; [8]
  PT INR: 1.02
  aPTT INR: 2.08
[1]; [9]
  PT: not significantly prolonged
  aPTT: prolonged in a dose-dependent manner
[2]; + FeCl3
  PF-4 mRNA, percent as compared to the PBS + FeCl3 control (thrombus formation): 40%
[2]; − FeCl3
  PF-4 mRNA, percent as compared to the PBS + FeCl3 control (thrombus formation): 27%
[3]; [10]
  PT: did not significantly affect PT
  aPTT: did prolong aPTT
[3]; [11]
  PT INR: 0.99 INR
  aPTT INR: 0.98 INR
[3]; [12]
  PT INR: 1.07 INR
  aPTT INR: 1.09 INR
[3]; [13]
  PT INR: 1.08 INR
  aPTT INR: 1.29 INR
[3]; [14]
  PT INR: 1.09 INR
  aPTT INR: 1.32 INR
[3]; [15]
  PT INR: 0.98 INR
  aPTT INR: 1.64 INR
[4]; BALB/c mice, ISIS 404071 25 or 20 mg/kg, LOVENOX 20 mg/kg
  PT: not significantly affected
[4]; [16]
  PT INR: 0.95 INR
  aPTT INR: 1.31 INR
